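Compound exposure: 48 hours, 5 concentrations, 96-well plates. GI50 marks 50% less growth.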 Activity calls are given as the source filed them. Rule as the data show it: active = GI50 up to about 1.1 µM and inactive = higher.
Key:
Assay in all cases: inhibition of tumour cell growth, NCI panel, 48 h
[1] = test system: DLD-1
[2] = test system: DMS-114
[3] = test system: HOP-18
[4] = test system: KM-20L2
[5] = test system: M19-MEL
[6] = test system: LXFL 529
[7] = test system: SNB-78
[8] = test system: XF498
[9] = test system: RXF 631

Row | Compound | GI50 [1] | GI50 [2] | GI50 [3] | GI50 [4] | GI50 [5] | GI50 [6] | GI50 [7] | GI50 [8] | GI50 [9]
1 | Cc1ccccc1NC(=O)c1cc2cc(/N=N/c3ccccc3C(=O)O)ccc2oc1=O | 16.7 µM (inactive) | 14.6 µM (inactive) | 15 µM (inactive) | 16.9 µM (inactive) | 9.38 µM (inactive) |  |  |  | 
2 | COc1cc2c(c(OC)c1OC)C(=O)NCCC2 | > 100 µM (inactive) | > 100 µM (inactive) | > 100 µM (inactive) | > 100 µM (inactive) | > 100 µM (inactive) | > 100 µM (inactive) | > 100 µM (inactive) | > 100 µM (inactive) | 
3 | CCCCOC(=O)NC(=O)c1cn(C2CCCCC2)c(=O)[nH]c1=O | 36.9 µM (inactive) | 39.8 µM (inactive) | 19.4 µM (inactive) | 76 µM (inactive) | 71.4 µM (inactive) | 29 µM (inactive) | 36.6 µM (inactive) | 54.7 µM (inactive) | 
4 | COc1ccccc1-n1c(N)c2c(C)c(-c3ccccc3)[nH]c2nc1=S | > 100 µM (inactive) | > 100 µM (inactive) | 4.04 µM (inactive) | 18.7 µM (inactive) | > 100 µM (inactive) | > 100 µM (inactive) |  | > 100 µM (inactive) | 
5 | COc1ccc(OC2(c3cc(OC)ccc3OC)OC(=O)c3ccccc32)cc1 (stereo not given) | > 100 µM (inactive) | > 100 µM (inactive) | > 100 µM (inactive) | > 100 µM (inactive) | > 100 µM (inactive) | > 100 µM (inactive) | > 100 µM (inactive) |  | > 100 µM (inactive)
6 | CCOC(OC1=C(C#N)CCCC1)C(C)[Se]c1ccccc1 (stereo not given) | 36.2 µM (inactive) | 4.29 µM (inactive) | 38.5 µM (inactive) | 62.7 µM (inactive) | 29.2 µM (inactive) | 22.7 µM (inactive) | > 100 µM (inactive) | 23.6 µM (inactive) | 
7 | S=C(N/N=C/c1ccco1)NC12CC3CC(CC(C3)C1)C2 | > 100 µM (inactive) | 37.3 µM (inactive) | > 100 µM (inactive) | 42.8 µM (inactive) | > 100 µM (inactive) | 52.2 µM (inactive) | > 100 µM (inactive) | > 100 µM (inactive) | 
8 | Cc1ccc(S(=O)(=O)OCC23CCC(CC2)C2CC23)cc1 (stereo not given) | 74.1 µM (inactive) | 30.5 µM (inactive) | > 100 µM (inactive) | 56.5 µM (inactive) | 43.2 µM (inactive) | 68.2 µM (inactive) |  |  | 73.5 µM (inactive)
9 | O=C1C=CC(=O)c2cc(Sc3ccccc3)c(=O)ccc21 | 13.6 µM (inactive) | 18.8 µM (inactive) | 17.9 µM (inactive) | 20.2 µM (inactive) | 16.6 µM (inactive) | 7.43 µM (inactive) | 20 µM (inactive) |  | 21.7 µM (inactive)
10 | O=C(O)C1=C(C(=O)Nc2ccc(NC(=O)C3=C(C(=O)O)C4C=CC3C4)cc2)C2C=CC1C2 | > 100 µM (inactive) | > 100 µM (inactive) | > 100 µM (inactive) | > 100 µM (inactive) | > 100 µM (inactive) | > 100 µM (inactive) | > 100 µM (inactive) | > 100 µM (inactive) | 
11 | CCc1cccc(C)c1NC(=O)CC1C(=O)Nc2ccccc2[S+]1[O-] (stereo not given) | 47.6 µM (inactive) |  |  | 30.5 µM (inactive) |  | 66.1 µM (inactive) | 45.2 µM (inactive) | 46.5 µM (inactive) | 
12 | CC1=C(C(=O)CC(=O)C(=O)NC2C3CC4CC(C3)CC2C4)Sc2ccccc2N1 (stereo not given) | > 100 µM (inactive) | > 31.6 µM (inactive) | 86.1 µM (inactive) | > 100 µM (inactive) | > 100 µM (inactive) | > 100 µM (inactive) | > 100 µM (inactive) | > 100 µM (inactive) | 
13 | COc1cc([C@H]2c3cc4c(cc3[C@H](NCc3ccc([N+](=O)[O-])cc3)C3COC(=O)[C@H]32)OCO4)cc(OC)c1O (stereo not given in full) | 2.7 µM (inactive) | 2.62 µM (inactive) |  | 2.48 µM (inactive) | 3.85 µM (inactive) | 5.07 µM (inactive) | 5.94 µM (inactive) | 3.32 µM (inactive) | 
14 | Cc1ccc(NC(=O)CC2C(=O)Nc3ccccc3[S+]2[O-])c(C)c1 (stereo not given) | 15.3 µM (inactive) | 7.94 µM (inactive) | 28.1 µM (inactive) | 12.3 µM (inactive) | 13.1 µM (inactive) | 16.5 µM (inactive) | 16.4 µM (inactive) | 10.4 µM (inactive) | 17.2 µM (inactive)
15 | CNc1nnnn1C1OC(CO)C(O)C1O (stereo not given) | > 100 µM (inactive) | > 100 µM (inactive) |  | > 100 µM (inactive) | > 100 µM (inactive) | > 100 µM (inactive) | > 100 µM (inactive) | 14.2 µM (inactive) | > 100 µM (inactive)
16 | Cc1nc2c(n1Cc1ccc(Cl)cc1)C(=O)c1ccccc1C2=O | 4.18 µM (inactive) |  |  | 8.05 µM (inactive) | 11.7 µM (inactive) | 5.47 µM (inactive) | 9.42 µM (inactive) | 36.4 µM (inactive) | 
17 | Cc1noc2cccc(OCc3ccccc3)c12 | 64.9 µM (inactive) | 29 µM (inactive) | > 100 µM (inactive) | 65.5 µM (inactive) | 60.1 µM (inactive) | 49 µM (inactive) | 80.5 µM (inactive) | 56.9 µM (inactive) | 85.7 µM (inactive)
18 | COc1cccc(NC(=O)/C(Cc2nc3ccccc3nc2C)=N/NC(=O)C[n+]2ccccc2)c1 | > 100 µM (inactive) | > 100 µM (inactive) | > 100 µM (inactive) | > 100 µM (inactive) | > 100 µM (inactive) | > 100 µM (inactive) | > 100 µM (inactive) | > 100 µM (inactive) | 
19 | C=C1C(C)C2C(Cc3ccccc3)NC(=O)C23C(OC(C)=O)/C=C/C(C)(O)CC(C)C/C=C/C3C1O (stereo not given) | 0.0796 µM (active) | 8.57 µM (inactive) | 0.0324 µM (active) | 0.112 µM (active) | 49.1 µM (inactive) |  | 0.0454 µM (active) | 0.973 µM (active) | 
20 | C/C(CC(=O)Nc1ccc(Cl)c(Cl)c1)=N/NC(=O)C[N+](C)(C)C | 29.2 µM (inactive) | 21.5 µM (inactive) | > 100 µM (inactive) | > 100 µM (inactive) | > 100 µM (inactive) | > 100 µM (inactive) | > 100 µM (inactive) | > 100 µM (inactive) | 
21 | CCN(CC)C(=O)CC12CCCCC1=Nc1ccccc12 (stereo not given) | > 100 µM (inactive) |  | > 100 µM (inactive) | > 100 µM (inactive) | > 100 µM (inactive) | > 100 µM (inactive) | > 100 µM (inactive) | > 100 µM (inactive) | > 100 µM (inactive)
22 | Cn1ccnc1Cn1cc(-c2cccc(-c3cn[nH]c3)c2)cn1 | > 100 µM (inactive) | > 100 µM (inactive) |  | > 100 µM (inactive) | > 100 µM (inactive) | 99.1 µM (inactive) | > 100 µM (inactive) | > 100 µM (inactive) | > 100 µM (inactive)
23 | O=[N+]([O-])c1ccc2nc(/C(=N/Nc3ccccc3)C(O)c3ccc(Cl)cc3Cl)c(O)nc2c1 (stereo not given) | > 100 µM (inactive) | 8.65 µM (inactive) | > 100 µM (inactive) | > 100 µM (inactive) | > 100 µM (inactive) |  | > 100 µM (inactive) | > 100 µM (inactive) | 50.4 µM (inactive)
24 | COc1cc(C2c3cc4c(cc3[C@@H](OCCN)[C@H]3COC(=O)C23)OCO4)cc(OC)c1O (stereo not given in full) | 1.32 µM (inactive) | 0.0295 µM (active) | 1.77 µM (inactive) | 0.543 µM (active) | 0.196 µM (active) | 0.776 µM (active) | 3.52 µM (inactive) | < 0.0347 µM (active) | 
25 | COc1cc2c(cc1O)CN1CCC23C=C[C@@H](O)CC13 (stereo not given in full) | 63 µM (inactive) | 54.5 µM (inactive) | 71 µM (inactive) | > 100 µM (inactive) | 38.1 µM (inactive) | 51.3 µM (inactive) | > 100 µM (inactive) |  | 
26 | CC(C)=CC(=O)N(C)C1C2CN3CCC(O2)C13 (stereo not given) | > 100 µM (inactive) | > 100 µM (inactive) | > 100 µM (inactive) | > 100 µM (inactive) | > 100 µM (inactive) | > 100 µM (inactive) | > 100 µM (inactive) | > 100 µM (inactive) | 
27 | O=C1C(c2ccc([N+](=O)[O-])cc2)=[N+]([O-])c2ccccc21 | 33.9 µM (inactive) | 10.7 µM (inactive) | < 0.01 µM (active) |  | 17.2 µM (inactive) | 19.8 µM (inactive) | 22.5 µM (inactive) |  | 
28 | CC1=C2C(=CC(C)(C)[C@@H]2O)C(=O)[C@](C)(O)C12CC2 [ILLUDIN M] | 0.0138 µM (active) | 0.0251 µM (active) | 0.0313 µM (active) | 0.0156 µM (active) | 0.0246 µM (active) | 0.022 µM (active) |  | 0.01 µM (active) | 
29 | COC(=O)[C@H]1[C@H]2C[C@@H]3c4[nH]c5cc(OC)ccc5c4CCN3C[C@H]2C[C@@H](OC(=O)c2cc(OC)c(OC)c(OC)c2)[C@@H]1OC [RESERPINE] | 30.5 µM (inactive) | 15.6 µM (inactive) |  | 16.7 µM (inactive) | 20.9 µM (inactive) | 14.4 µM (inactive) |  |  | 
